Test results as given in patent US9260461B2, “Water-soluble derivatives and prodrugs of acacetin and methods of making and using thereof” (Versitech Limited, priority 2014, dated 2016).
In brackets after ≈: the same amount, converted by molar mass.

Key:
[1] = target: T1, IKACh (Rattus norvegicus, UniProt P48548+P63251); experiment: Whole-cell patch-clamp, IKACh activated by 5 μM carbachol in rat atrial myocytes; type: cell-based; settings: 30 μM, representative cells
T1 construct: from tissue; host or cells: freshly isolated left atrial myocytes of SD rats
T1 sequence (P63251 1-501): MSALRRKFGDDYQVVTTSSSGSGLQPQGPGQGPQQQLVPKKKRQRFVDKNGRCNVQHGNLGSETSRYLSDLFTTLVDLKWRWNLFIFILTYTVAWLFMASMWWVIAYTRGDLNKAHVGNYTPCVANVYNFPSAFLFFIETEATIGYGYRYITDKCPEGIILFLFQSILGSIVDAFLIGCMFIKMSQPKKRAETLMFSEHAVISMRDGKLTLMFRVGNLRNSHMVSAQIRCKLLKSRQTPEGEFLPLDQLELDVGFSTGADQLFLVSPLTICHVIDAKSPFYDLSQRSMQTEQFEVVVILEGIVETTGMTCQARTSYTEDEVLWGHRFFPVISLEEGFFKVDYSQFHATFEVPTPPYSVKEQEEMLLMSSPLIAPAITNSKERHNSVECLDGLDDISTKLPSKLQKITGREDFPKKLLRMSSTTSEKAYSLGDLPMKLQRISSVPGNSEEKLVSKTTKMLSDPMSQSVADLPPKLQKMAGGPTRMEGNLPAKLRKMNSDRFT
T1 sequence (P48548 1-419): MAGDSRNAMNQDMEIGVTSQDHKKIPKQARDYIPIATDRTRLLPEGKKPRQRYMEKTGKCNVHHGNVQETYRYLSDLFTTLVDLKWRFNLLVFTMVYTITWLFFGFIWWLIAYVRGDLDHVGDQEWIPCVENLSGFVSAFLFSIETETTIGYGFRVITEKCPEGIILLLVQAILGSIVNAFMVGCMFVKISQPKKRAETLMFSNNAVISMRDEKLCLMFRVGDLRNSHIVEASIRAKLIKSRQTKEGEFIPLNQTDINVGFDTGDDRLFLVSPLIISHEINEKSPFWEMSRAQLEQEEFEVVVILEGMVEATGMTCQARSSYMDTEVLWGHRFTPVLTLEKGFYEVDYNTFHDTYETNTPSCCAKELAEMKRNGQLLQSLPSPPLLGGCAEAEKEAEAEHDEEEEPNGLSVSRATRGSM
Method: Rat atrial myocytes were prepared with the procedure described previously (Li et al., 2002) with a slight modification. Briefly, After SD rats (250-300 g) were anesthetized with pentobarbital (30 mg/kg i.p.), the heart was mounted to a Langendorff heart perfusion apparatus via the aorta and perfused with HEPES-buffered Tyrode's solution at 37° C. gassed with 100% 02 for 5 min. The heart was perfused with Ca^2+-free Tyrode's solution for 5-8 min, followed by Ca^2+-free Tyrode's solution containing 0.06% collagenase (Type II, Worthington Biochemical, Lakewood, N.J., USA) and 0.1% bovine serum albumin (Sigma). When the heart became softened the left atrium was excised and placed in a high-K storage medium at room temperature for 2 h, and then used for electrophysiological recording (Li et al., 2002).
Ionic currents in HEK 293 cell lines and rat atrial myocytes were measured by the standard whole-cell patch-clamp technique using a standard pipette and bath solution with an EPC-10 amplifier and Pulse software (HEKA, Lambrecht, Germany). A 3M KCl-agar salt bridge was used as the reference electrode. The current signal was sampled at 5 kHz, recorded and stored in the hard disk of an IBM compatible computer. All experiments were conducted at room temperature (22-23° C.). […]

[2] = target: T2, Kv1.5 current (hKV1.5 gene expressed in HEK 293 cells) (Homo sapiens, UniProt P22460); experiment: Whole-cell patch-clamp, Kv1.5 current in HEK 293 cells; type: cell-based; settings: 30 μM, representative cells
T2 construct: expressed in transfected cells
T2 sequence (P22460 whole entry): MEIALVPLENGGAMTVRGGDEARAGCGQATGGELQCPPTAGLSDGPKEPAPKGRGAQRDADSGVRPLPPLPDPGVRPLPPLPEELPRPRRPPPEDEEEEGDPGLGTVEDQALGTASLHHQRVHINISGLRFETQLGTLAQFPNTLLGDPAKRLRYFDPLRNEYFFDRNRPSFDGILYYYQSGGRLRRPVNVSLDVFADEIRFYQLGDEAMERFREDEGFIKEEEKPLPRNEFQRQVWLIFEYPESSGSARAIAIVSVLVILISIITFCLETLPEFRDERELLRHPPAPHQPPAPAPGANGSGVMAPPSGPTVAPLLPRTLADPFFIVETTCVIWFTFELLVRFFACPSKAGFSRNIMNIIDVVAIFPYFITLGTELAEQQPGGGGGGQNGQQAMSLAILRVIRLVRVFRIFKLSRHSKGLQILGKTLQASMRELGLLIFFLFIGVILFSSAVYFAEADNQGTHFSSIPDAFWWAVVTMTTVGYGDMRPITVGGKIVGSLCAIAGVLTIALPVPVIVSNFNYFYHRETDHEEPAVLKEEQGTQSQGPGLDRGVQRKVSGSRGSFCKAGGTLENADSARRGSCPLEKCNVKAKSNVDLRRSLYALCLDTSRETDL
Method: HEK 293 cell line stably expressing the hKV1.5 gene (Wu et al., 2011) or hKv4.3 gene (Wu et al., 2013) was maintained in Dulbecco's modified eagle's medium (DMEM, Invitrogen, Hong Kong) supplemented with 10% fetal bovine serum and 400 μg/mL G418 in a 5% CO2 incubator. Cells were seeded on a glass cover slip for electrophysiology recording.
Ionic currents in HEK 293 cell lines and rat atrial myocytes were measured by the standard whole-cell patch-clamp technique using a standard pipette and bath solution with an EPC-10 amplifier and Pulse software (HEKA, Lambrecht, Germany). A 3M KCl-agar salt bridge was used as the reference electrode. The current signal was sampled at 5 kHz, recorded and stored in the hard disk of an IBM compatible computer. All experiments were conducted at room temperature (22-23° C.).
However, Kv1.5 current (FIG. 3D), Kv4.3 current (FIG. 3E) or IKACh (FIG. 3F) was inhibited by 10 μM acacetin in representative cells consistent with experimental reports.

[3] = Solubility of the purified prodrugs versus parent compound acacetin; type: physicochemical; settings: aqueous buffer; Tris solution, pH=7.0; read-out: solubility in Tris solution
Description: Prodrug B: Light yellow solid. Yield 54%. C16H11O7PNa2 (408.21). EI-MS: m/z 387.04 [M+H—Na]^+. ^1H NMR (400 MHz, DMSO-d6): δ=12.90 (s, 1H), 8.04 (d, J=8.8 Hz, 2H), 7.10 (d, J=8.8 Hz, 2H), 7.02 (s, 1H), 6.98 (s, 1H), 6.60 (s, 1H), 3.89 (s, 3H) ppm.

Compound: COc1ccc(-c2cc(=O)c3c(O)cc(OP(=O)(O)O)cc3o2)cc1 [Prodrug A]
- effect on IKACh [1]: no inhibitory effect
- effect on Kv1.5 current [2]: no inhibitory effect
- solubility [3]: 10000 µg/mL (≈ 27.5 mM)
